Reference: patent US6586425B2, “Cytoskeletal active agents for glaucoma therapy” (Wisconsin Alumni Research Foundation, priority 1996, dated 2003)
Several values for one entry are separate records, joined by “and”; a condition that tells them apart may be missing. Equal values may be shown once. Read-outs that look alike come from different tables or passages of the source.

Tests used:
living monkey eyes [1] = assay: Slit lamp biomicroscopy (ocular tolerability); type: in vivo, cynomolgus monkeys (Macaca fascicularis)
living monkey eye = conditions: in vivo
corneal endothelium = conditions: for Cell count Exp, drug eye / Cell count Exp, drug/Vehicle / Cell count Exp, drug−Vehicle / Cell count Exp/BL, drug eye / Cell count Exp/BL, drug/Vehicle / Cell count Exp/BL, drug−Vehicle: 21 μg LAT-A topical, n=4
living monkey eyes [2] = assay: Aqueous humor flow and corneal endothelial transfer coefficient ka by fluorophotometry; conditions: 42 μg LAT-A topical
living monkey eyes [3] = assay: Slit lamp biomicroscopy (ocular tolerability); type: in vivo, cynomolgus monkeys (Macaca fascicularis); remark: listed apart in the source
Experimental: e) Ocular Tolerability/Toxicity: Ocular exams, including slit lamp biomicroscopy (Zeiss or Haag-Streit), gonioscopy, and binocular indirect ophthalmoscopy (American Optical or Keeler), were performed by a trained ophthalmologist, using when necessary contact lenses specially fabricated for the small monkey eye (Kaufman and Wallow, Exp. Eye Res., 40:883-885[1985]). In addition, specular microscopy was used to evaluate drug effects on the corneal endothelium.
The AC of both eyes of was cannulated with a branched needle as above, after which baseline facility measurements were taken for 35-45 min. With reservoirs closed, 2×5 μl drops of 200 μM (˜0.8 μg) or 4×5 μl drops of 500 μM (˜4.0 μg) LAT-B were given to one eye of the prone monkey, allowing 60-90 sec between drops. […] Vehicle (10 or 25% DMSO respectively) was given simultaneously to the opposite eye in a similar manner. The doses were chosen to give […] and 1 μM LAT-B concentrations respectively in the 100 μl monkey AC (See e.g., Erickson-Lamy et al., Arch. Opthalmol., 102:1815-1820[1984]), assuming 1% penetration and no initial drug loss from the AC (Asseff et al., Amer. J. Ophthalmol., 75:212-215[1973]; Harris, in Leopold (ed.), Symposium on Ocular Therapy, C. V. Mosby, St. Louis, Mo., [1968], pp. 96-105; Janes and Stiles, Arch. Ophthahnol., 62:69-74[1959]). The perfusion system remained closed for 2 hr, after which facility measurements were taken for 90 min. Biomicroscopy was performed by an ophthalmologist before and 3, 7 and 14 days after drug administration.
For slit lamp biomicroscopy, a trained ophthalmologist examined all eyes by slit lamp, for integrity of the corneal epithelium and endothelium, presence of flare or cells in the anterior chamber and clarity of the lens. All animals were free of ocular abnormalities when studied.

living monkey eyes [4] = assay: Aqueous humor protein concentration (Lowry method); type: in vivo, cynomolgus monkeys (Macaca fascicularis); conditions: 42 μg LAT-A topical
Text: Approximately 5.5 hr after LAT-A and vehicle (25% DMSO) administration, or approximately 6.5 hr after LAT-B and vehicle (25% DMSO) administration, when AHF measurements had been completed, a sample of AH was obtained under a Zeiss surgical microscope, using a 30-gauge needle connected via polyethylene tubing to a tuberculin syringe. The needle was threaded through the corneal stroma for 6 mm, then directed into the AC so that the wound was self-sealing. AH entered the tubing by very gentle suction with the tuberculin syringe; only occasionally was brief mild pressure on the cornea with a needle holder required to promote the initial flow of AH into the tubing via the very thin needle. Approximately 60-80 μl of AH was removed, leaving a shallow but not completely flattened AC. In separate protocols with different monkeys, AH was similarly obtained 2 hr after 42 μg LAT-A or 1 hr after 4 μg LAT-B to one eye and vehicle to the opposite eye. The AH samples were stored at −20° C. for up to 24 hr. The protein concentration in each sample was assayed by the Lowry method, as known in the art (See e.g., Lowry et al., J. Biol. Chem., 193:265-275[1951]; and Peterson et al., Anal. Biochem., 100:201-220[1979]), in duplicate, and the result averaged. Duplicate sets of protein standards containing 0, 1, 3, 5, 10, 20, 40, or 60 μg bovine serum albumin (BSA) were assayed by the same method and results averaged and graphed to give a linear equation that was used to estimate the protein content in the AH samples. The optical density of each sample was measured at 660 nm using a Spectronic 20 Spectrophotometer (Bausch and Lomb).

C/C1=C/C(=O)O[C@@H]2C[C@@H](CC[C@H](C)/C=C\C=C\CC1)O[C@@](O)([C@@H]1CSC(=O)N1)C2 [LAT-A]
recovery of endothelial refractile spots (living monkey eyes [1]; higher dose of LAT-A (42 μg)): most recovered by 10 hr
recovery of endothelial refractile spots (living monkey eyes [1]; lower dose of LAT-A (21 μg)): recovered almost completely by 6 hr
corneal endothelial cell borders (living monkey eyes [1]; one to 5 hr after topical drug): indistinct
BL2/BL1, Rx eye (living monkey eye): 1.24 ± 0.19
BL2/BL1, Rx/Cont (living monkey eye): 1.12 ± 0.15
Baseline facility BL2, Rx eye (living monkey eye): 0.42 ± 0.06 μl/min/mmHg
Baseline facility BL2, Rx/Cont (living monkey eye): 1.07 ± 0.17
effect on facility (living monkey eye): probably ineffective
reversibility of the facility-effect (living monkey eye): minimal
Cell count Exp, drug eye (corneal endothelium; 3 days): 2488 ± 63 cell per square millimeter
Cell count Exp, drug/Vehicle (corneal endothelium; 3 days): 1.02 ± 0.03
Cell count Exp, drug−Vehicle (corneal endothelium; 3 days): 44 ± 62 cell per square millimeter
Cell count Exp/BL, drug eye (corneal endothelium; 3 days): 0.98 ± 0.01
Cell count Exp/BL, drug/Vehicle (corneal endothelium; 3 days): 1.06 ± 0.02
Cell count Exp/BL, drug−Vehicle (corneal endothelium; 3 days): 0.05 ± 0.10
Cell count Exp, drug eye (corneal endothelium; 7 days): 2488 ± 97 cell per square millimeter
Cell count Exp, drug/Vehicle (corneal endothelium; 7 days): 0.98 ± 0.06
Cell count Exp, drug−Vehicle (corneal endothelium; 7 days): −69 ± 140 cell per square millimeter
Cell count Exp/BL, drug eye (corneal endothelium; 7 days): 0.98 ± 0.03
Cell count Exp/BL, drug/Vehicle (corneal endothelium; 7 days): 1.02 ± 0.08
Cell count Exp/BL, drug−Vehicle (corneal endothelium; 7 days): 0.01 ± 0.07
Cell count Exp, drug eye (corneal endothelium; 14 days): 2694 ± 28 cell per square millimeter
Cell count Exp, drug/Vehicle (corneal endothelium; 14 days): 1.01 ± 0.06
Cell count Exp, drug−Vehicle (corneal endothelium; 14 days): 0 ± 147 cell per square millimeter
Cell count Exp/BL, drug eye (corneal endothelium; 14 days): 1.06 ± 0.03
Cell count Exp/BL, drug/Vehicle (corneal endothelium; 14 days): 1.04 ± 0.03
Cell count Exp/BL, drug−Vehicle (corneal endothelium; 14 days): 0.04 ± 0.03
cell densities vs baseline (corneal endothelium; 21 μg LAT-A, day 3): essentially the same as at baseline
cell densities vs baseline or contralateral eyes (corneal endothelium; 42 μg LAT-A, day 3): slightly (but not significantly) lower cell densities than baseline or contralateral eyes
cell density and morphology (corneal endothelium; LAT-A either dose, day 7): cell density and morphology had returned to baseline
countability of corneal endothelial cells (corneal endothelium; either dose of LAT-A (21 or 42 μg), 1 or 3 hr): could not be counted
relative difference in ka between first and second 3-hr intervals (living monkey eyes [2]): 27±12%
increase in ka (living monkey eyes [2]; first 3 hr): 106±16%
increase in apparent AHF relative to vehicle, adjusted for baseline (living monkey eyes [2]; first 3 hr, n=8): 87% and 87±13%
increase in ka (living monkey eyes [2]; overall, n=8): 94±9%
AHF, drug- vs vehicle-treated eyes (living monkey eyes [2]; second 3 hr): no significant differences
increase in ka (living monkey eyes [2]; second 3 hr): 68±10%
AHF Rx, LAT-A eye (living monkey eyes [2]; hour 0.5 to 3.0, n=8): 3.48 microliters per minutes
AHF Rx, LAT-A/Vehicle (living monkey eyes [2]; hour 0.5 to 3.0, n=8): 1.94
AHF Rx/BL, LAT-A eye (living monkey eyes [2]; hour 0.5 to 3.0, n=8): 1.82
AHF Rx/BL, LAT-A/Vehicle (living monkey eyes [2]; hour 0.5 to 3.0, n=8): 1.87
ka Rx, LAT-A eye (living monkey eyes [2]; hour 0.5 to 3.0, n=8): 0.00996 min⁻¹
ka Rx, LAT-A/Vehicle (living monkey eyes [2]; hour 0.5 to 3.0, n=8): 2.15
ka Rx/BL, LAT-A eye (living monkey eyes [2]; hour 0.5 to 3.0, n=8): 1.84
ka Rx/BL, LAT-A/Vehicle (living monkey eyes [2]; hour 0.5 to 3.0, n=8): 2.06
AHF Rx, LAT-A eye (living monkey eyes [2]; hour 0.5 to 6.0, n=8): 2.65 microliters per minutes
AHF Rx, LAT-A/Vehicle (living monkey eyes [2]; hour 0.5 to 6.0, n=8): 1.51
AHF Rx/BL, LAT-A eye (living monkey eyes [2]; hour 0.5 to 6.0, n=8): 1.38
AHF Rx/BL, LAT-A/Vehicle (living monkey eyes [2]; hour 0.5 to 6.0, n=8): 1.51
ka Rx, LAT-A eye (living monkey eyes [2]; hour 0.5 to 6.0, n=8): 0.00961 min⁻¹
ka Rx, LAT-A/Vehicle (living monkey eyes [2]; hour 0.5 to 6.0, n=8): 1.98
ka Rx/BL, LAT-A eye (living monkey eyes [2]; hour 0.5 to 6.0, n=8): 1.72
ka Rx/BL, LAT-A/Vehicle (living monkey eyes [2]; hour 0.5 to 6.0, n=8): 1.94
AHF Rx, LAT-A eye (living monkey eyes [2]; hour 3.5 to 6.0, n=8): 1.87 microliters per minutes
AHF Rx, LAT-A/Vehicle (living monkey eyes [2]; hour 3.5 to 6.0, n=8): 1.00
AHF Rx/BL, LAT-A eye (living monkey eyes [2]; hour 3.5 to 6.0, n=8): 1.00
AHF Rx/BL, LAT-A/Vehicle (living monkey eyes [2]; hour 3.5 to 6.0, n=8): 1.01
ka Rx, LAT-A eye (living monkey eyes [2]; hour 3.5 to 6.0, n=8): 0.00925 min⁻¹
ka Rx, LAT-A/Vehicle (living monkey eyes [2]; hour 3.5 to 6.0, n=8): 1.69
ka Rx/BL, LAT-A eye (living monkey eyes [2]; hour 3.5 to 6.0, n=8): 1.59
ka Rx/BL, LAT-A/Vehicle (living monkey eyes [2]; hour 3.5 to 6.0, n=8): 1.68
lens appearance (living monkey eyes [3]; after topical drug): always appeared normal
corneal epithelium at slit lamp (living monkey eyes [3]; topical LAT-A (21 or 42 μg) or LAT-B (4 μg) in 25% DMSO): mild transient corneal epithelial cloudiness
eyes that developed flare (1-2+ on a scale of 0-4+) (living monkey eyes [3]; topical, recovered by 24-48 hr): Four LAT-A- treated eyes
[Protein]AC vs vehicle-treated eyes (living monkey eyes [4]; 5.5 hr): no difference in protein concentration
[Protein]AC higher than in vehicle-treated eyes (living monkey eyes [4]; two hr, n=7): 25±9%
